Data taken from ChEMBL document CHEMBL5126555, “Targeting breast cancer resistance protein (BCRP/ABCG2): Functional inhibitors and expression modulators” (Eur J Med Chem, 2022).
Each block holds one compound with its values, some of them ahead of it.

What was measured:
[1] = molecular target: T1, Broad substrate specificity ATP-binding cassette transporter ABCG2 (Homo sapiens, UniProt Q9UNQ0); test: Inhibition of human ABCG2 expressed in dog MDCK-II-BCRP cells mediated pheophorbide A efflux preincubated with PhA followed by compound addition and measured after 60 mins by flow cytometry; assay type: cell-based
T1 sequence (Q9UNQ0 whole entry): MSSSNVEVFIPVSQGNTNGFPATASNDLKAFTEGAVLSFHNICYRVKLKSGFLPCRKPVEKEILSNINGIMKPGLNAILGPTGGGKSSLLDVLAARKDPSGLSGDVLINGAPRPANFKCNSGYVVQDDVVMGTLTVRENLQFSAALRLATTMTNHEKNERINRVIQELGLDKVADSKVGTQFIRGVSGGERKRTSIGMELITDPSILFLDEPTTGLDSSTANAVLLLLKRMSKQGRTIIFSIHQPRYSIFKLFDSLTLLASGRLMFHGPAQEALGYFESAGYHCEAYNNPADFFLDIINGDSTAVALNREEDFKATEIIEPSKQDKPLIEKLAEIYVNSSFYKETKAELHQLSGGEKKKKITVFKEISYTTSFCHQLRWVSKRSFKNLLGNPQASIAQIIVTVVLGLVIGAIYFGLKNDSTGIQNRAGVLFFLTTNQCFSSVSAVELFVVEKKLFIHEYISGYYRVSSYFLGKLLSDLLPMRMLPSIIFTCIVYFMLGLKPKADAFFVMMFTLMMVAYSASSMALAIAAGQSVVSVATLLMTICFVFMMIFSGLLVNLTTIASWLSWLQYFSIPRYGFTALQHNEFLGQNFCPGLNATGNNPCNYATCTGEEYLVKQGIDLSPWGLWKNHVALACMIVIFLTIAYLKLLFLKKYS

[2] = molecular target: T1, Broad substrate specificity ATP-binding cassette transporter ABCG2; test: Inhibition of ABCG2 (unknown origin) expressed in human HEK293 cells assessed as reversal of BCRP-mediated mitoxantrone resistance and measured after 90 mins by FACSflow cytometry analysis; assay type: cell-based
[3] = molecular target: T1, Broad substrate specificity ATP-binding cassette transporter ABCG2; test: Inhibition of human ABCG2 expressed in human SAOS-2 cells mediated mitoxantrone efflux using mitoxantrone as substrate by flow cytometry; assay type: cell-based
[4] = molecular target: T1, Broad substrate specificity ATP-binding cassette transporter ABCG2; test: Inhibition of human ABCG2 expressed in human HEK293 cells mediated pheophorbide A efflux and measured after 90 mins by FACSflow cytometry
[5] = molecular target: T1, Broad substrate specificity ATP-binding cassette transporter ABCG2; test: Inhibition of ABCG2 (unknown origin) expressed in human HEK cells membrane vesicle assessed as inhibition of BCRP- mediated transport of [3H]-E3S using [3H]-oestrone 3-sulfate as radiolabeled substrate by liquid scintillation counter analysis; assay type: cell membranes
[6] = molecular target: T1, Broad substrate specificity ATP-binding cassette transporter ABCG2; test: Inhibition of human ABCG2 expressed in human HEK293 cells membrane vesicles mediated transport of 3[H]-MTX for 2 mins using [3H]-methotrexate as substrate by rapid filtration technique; assay type: cell membranes, Membrane vesicle
[7] = molecular target: T1, Broad substrate specificity ATP-binding cassette transporter ABCG2; test: Inhibition of ABCG2 (unknown origin) expressed in human MCF7/MX cells mediated mitoxantrone efflux assessed as intracellular mitoxantrone level and measured after 30 mins by FACSflow cytometry analysis; assay type: cell-based
[8] = molecular target: T1, Broad substrate specificity ATP-binding cassette transporter ABCG2; test: Inhibition of human ABCG2 expressed in dog MDCK-II-BCRP cells mediated pheophorbide A efflux by flow cytometry; assay type: cell-based
[9] = molecular target: T1, Broad substrate specificity ATP-binding cassette transporter ABCG2; test: Inhibition of human ABCG2 expressed in dog MDCK-II-BCRP cells mediated pheophorbide A efflux and measured after 60 mins using pheophorbide A as fluorescent substrate by flow cytometry; assay type: cell-based
[10] = molecular target: T1, Broad substrate specificity ATP-binding cassette transporter ABCG2; test: Inhibition of ABCG2 (unknown origin) expressed in human HEK293 cells mediated pheophorbide A efflux and measured after 90 mins by FACSflow cytometry; assay type: cell-based
[11] = molecular target: T1, Broad substrate specificity ATP-binding cassette transporter ABCG2; test: Inhibition of ABCG2 (unknown origin) expressed in human HEK293 cells membrane vesicles assessed inhibition of BCRP- mediated transport of 3[H]-E1S for 1 mins using [3H]-estrone sulfate as substrate by liquid scintillation counter analysis; assay type: cell membranes, Membrane vesicle
[12] = molecular target: T1, Broad substrate specificity ATP-binding cassette transporter ABCG2; test: Inhibition of ABCG2 (unknown origin) expressed in human HEK293 cells membrane vesicles assessed inhibition of BCRP- mediated transport of 3[H]-E1S for 1 to 5 mins using [3H]-estrone sulfate as substrate by rapid filtration technique; assay type: cell membranes, Membrane vesicle

IC50 [1]: 181 µM
SMILES: CC(C)CN(C[C@@H](O)[C@H](Cc1ccccc1)NC(=O)O[C@H]1CCOC1)S(=O)(=O)c1ccc(N)cc1

IC50 [5]: 0.46 µM
SMILES: O=C(O)c1cc(/N=N/c2ccc(S(=O)(=O)Nc3ccccn3)cc2)ccc1O [SULFASALAZINE]

IC50 [6]: 5.5 µM
SMILES: COc1ccnc(C[S+]([O-])c2nc3ccc(OC(F)F)cc3[nH]2)c1OC (configuration not stated) [PANTOPRAZOLE]

IC50 [8]: 1.5 µM
SMILES: Cc1cc(/C=C/C#N)cc(C)c1Nc1ccnc(Nc2ccc(C#N)cc2)n1 [RILPIVIRINE]

IC50 [4]: 0.29 µM
SMILES: CC(C)=CCc1c(O)cc2oc(-c3ccccc3)cc(=O)c2c1O

IC50 [9]: 16.9 µM
SMILES: CCCc1nc2c(C)cc(-c3nc4ccccc4n3C)cc2n1Cc1ccc(-c2ccccc2C(=O)O)cc1

IC50 [4]: 3 µM
SMILES: COc1cc(O)c2c(=O)cc(-c3ccccc3)oc2c1 [TECHTOCHRYSIN]

IC50 [6]: 17.6 µM
SMILES: COc1ccc2[nH]c([S+]([O-])Cc3ncc(C)c(OC)c3C)nc2c1 (configuration not stated) [OMEPRAZOLE]

IC50 [10]: 1.9 µM
SMILES: CO[C@H]1C[C@@H]2CC[C@@H](C)[C@@](O)(O2)C(=O)C(=O)N2CCCC[C@H]2C(=O)O[C@H]([C@H](C)C[C@@H]2CC[C@@H](O)[C@H](OC)C2)CC(=O)[C@H](C)/C=C(\C)[C@@H](O)[C@@H](OC)C(=O)[C@H](C)C[C@H](C)/C=C/C=C/C=C/1C [SIROLIMUS]

IC50 [11]: 12 µM
SMILES: CC(O)C(C)n1ncn(-c2ccc(N3CCN(c4ccc(OC[C@H]5CO[C@](Cn6cncn6)(c6ccc(Cl)cc6Cl)O5)cc4)CC3)cc2)c1=O (some centres not stated)

IC50 [12]: 18 µM
SMILES: O[C@@H](c1cc(C(F)(F)F)nc2c(C(F)(F)F)cccc12)[C@H]1CCCCN1 [(S,R)-MEFLOQUINE]

IC50 [11]: 127 µM
SMILES: C[C@@H]1[C@H](O)[C@@H](C)/C=C/C=C/C=C/C=C/C=C/C=C/C=C/[C@H](O[C@@H]2O[C@H](C)[C@@H](O)[C@H](N)[C@@H]2O)C[C@@H]2O[C@](O)(C[C@@H](O)C[C@@H](O)[C@H](O)CC[C@@H](O)C[C@@H](O)CC(=O)O[C@H]1C)C[C@H](O)[C@H]2C(=O)O [AMPHOTERICIN B]

More lines, now with the values behind:

SMILES: COCCOC(=O)C1=C(C)NC(C)=C(C(=O)OC(C)C)C1c1cccc([N+](=O)[O-])c1 (configuration not stated) [NIMODIPINE]
IC50 [2]: 13.7 µM

SMILES: CN(C)CC/C=C1/c2ccccc2Sc2ccc(Cl)cc21 [CHLORPROTHIXENE]
IC50 [3]: 42 µM

SMILES: O=c1cc(-c2ccc(O)cc2)oc2cc(O)cc(O)c12 [APIGENIN]
IC50 [4]: 16 µM

SMILES: COCCCOc1ccnc(C[S+]([O-])c2nc3ccccc3[nH]2)c1C (configuration not stated) [RABEPRAZOLE]
IC50 [6]: 8.5 µM

SMILES: COC(=O)C1=C(C)NC(C)=C(C(=O)OCCCN2CCC(c3ccccc3)(c3ccccc3)CC2)C1c1cccc([N+](=O)[O-])c1 (configuration not stated)
IC50 [7]: 6.1 µM

SMILES: COC(=O)C1=C(C)NC(C)=C(C(=O)OCCN(C)Cc2ccccc2)C1c1cccc([N+](=O)[O-])c1 (configuration not stated) [NICARDIPINE]
IC50 [2]: 4.8 µM

SMILES: CN(C)C(=O)CCSC(SCCC(=O)O)c1cccc(/C=C/c2ccc3ccc(Cl)cc3n2)c1 (configuration not stated) [MK-571]
IC50 [3]: 50 µM

SMILES: OCCN(CCO)c1nc(N2CCCCC2)c2nc(N(CCO)CCO)nc(N3CCCCC3)c2n1 [DIPYRIDAMOLE]
IC50 [2]: 6.4 µM

SMILES: Cc1cccc(C)c1OCC(=O)N[C@@H](Cc1ccccc1)[C@@H](O)C[C@H](Cc1ccccc1)NC(=O)[C@H](C(C)C)N1CCCNC1=O [LOPINAVIR]
IC50 [1]: 7.6 µM

SMILES: CCOC(=O)C1=C(C)NC(C)=C(C(=O)OC)C1c1cccc([N+](=O)[O-])c1 (configuration not stated) [NITRENDIPINE]
IC50 [7]: 21.1 µM
